“Also recorded” adds a separate entry of the source.
Columns and labels:
[1] = In vitro inhibitory activity of phytic acid and EDTA against complexation of bisphosphonate with calcium (residual risedronate in solution by HPLC); type: physicochemical; conditions: for Inhibition of calcium-risedronate complexation: Tables 2 to 4, FIGS. 1 to 3
Method: Herein, in vitro tests in which after bisphosphonate and a chelating agent were simultaneously added to a solution containing a predetermined amount of calcium ions, correlation between time and residual bisphosphonate in the solution was determined were performed as explained in the following Reference Examples.
Various 50 mL solutions containing 50 mg, 10 mg and 5 mg of calcium in combination with 50 mg and 100 mg of EDTA, or […] as a chelating agent were prepared and used respectively in Reference Examples 1 to 15.
The mechanism in which a chelating agent facilitates the absorption of bisphosphonate can be explained as the degree to which the chelating inhibits bisphosphonate's activity of reacting with minerals (calcium, magnesium, etc.) in the gastrointestinal tract to form insoluble complexes. Thus, in vitro tests for assaying the inhibitory activity of phytic acid or EDTA against the complexation of bisphosphonate in calcium-containing solutions were conducted in Reference Test Example 1.
In a container with a cap, 25 mL of each of the solutions prepared in Reference Example 1 to 15 was placed, followed by agitation at 100 rpm for 120 min in an agitation bath maintained at 37° C. Approximately 1 mL of each of the solutions was taken at time points (immediately after preparation, and 15, 30, 60, 90 and 120 min after agitation) and allowed to pass through 0.45 μm PVDF membrane filters to remove precipitates. Residual resedronate in the solutions was quantitatively analyzed by HPLC.

intestinal mucosa = conditions: rabbits; cited from earlier work

Row | SMILES | Inhibition of calcium-risedronate complexation [1] | Inhibitory activity against complexation compared with EDTA ([1]; in vitro tests) | Amount of phytic acid relative to EDTA needed for the same inhibition of calcium-risedronate complexation ([1]; in vitro, Reference Examples 6 to 10) | Effect on intestinal mucosa (intestinal mucosa)
1 | O=P(O)(O)O[C@H]1[C@H](OP(=O)(O)O)[C@@H](OP(=O)(O)O)[C@H](OP(=O)(O)O)[C@@H](OP(=O)(O)O)[C@H]1OP(=O)(O)O [phytic acid, inositol hexakisphosphate] | inhibit calcium-risedronate complexation in a dose-dependent manner | poorer in inhibitory activity against complexation than was EDTA | at least twice the amount of EDTA; also recorded: twice as large as that of EDTA | 
2 | O=C(O)CN(CCN(CC(=O)O)CC(=O)O)CC(=O)O [EDTA] | inhibit calcium-risedronate complexation in a dose-dependent manner |  |  | irritate the intestinal mucosa
